Measurements: ChEMBL document CHEMBL5390256, “Sticklac-Derived Natural Compounds Inhibiting RNase H Activity of HIV-1 Reverse Transcriptase” (J Nat Prod, 2023)
Calls of active or inactive are those of the source. The calls are words filed in the database; no cut-off is given here.

How the values were obtained:
[1] = target: T1, Human immunodeficiency virus type 1 reverse transcriptase (Human immunodeficiency virus 1, UniProt Q72547); test: Inhibition of HIV-1 RNase H activity
[2] = target: Human immunodeficiency virus type 1 reverse transcriptase (Human immunodeficiency virus 1) (UniProt Q72547); test: Inhibition of HIV-1 RNase H using 5'-GAUCUGAGCCUGGGAGCU-3'-FAM RNA/BHQ-5'-AGCTCCCAGGCTCAGATC-3' DNA as substrate at 50 uM measured after 60 mins by FRET analysis
[3] = system: Human immunodeficiency virus 1; test: Antiviral activity against HIV-1 NL4-3 infected in human R5-MaRBLE reporter cells assessed as inhibition of viral replication measured after 7 days by Dual-Glo luciferase reporter assay; format: functional, organism-based
[4] = Cytotoxicity activity against human R5-MaRBLE reporter cells assessed as effect on Renilla luciferase activity measured after 7 days by Dual-Glo luciferase reporter assay; format: toxicity, cell-based; settings: time 7 day
[5] = target: T1, Human immunodeficiency virus type 1 reverse transcriptase; test: Inhibition of HIV-1 RNase H using 5'-GAUCUGAGCCUGGGAGCU-3'-FAM RNA/BHQ-5'-AGCTCCCAGGCTCAGATC-3' DNA as substrate measured after 60 mins by FRET analysis
[6] = target: DNA (cytosine-5)-methyltransferase 1 (Homo sapiens, UniProt P26358); test: Competitive inhibition of DNMT1 (unknown origin)
Sequence of DNA (cytosine-5)-methyltransferase 1 (P26358 whole entry): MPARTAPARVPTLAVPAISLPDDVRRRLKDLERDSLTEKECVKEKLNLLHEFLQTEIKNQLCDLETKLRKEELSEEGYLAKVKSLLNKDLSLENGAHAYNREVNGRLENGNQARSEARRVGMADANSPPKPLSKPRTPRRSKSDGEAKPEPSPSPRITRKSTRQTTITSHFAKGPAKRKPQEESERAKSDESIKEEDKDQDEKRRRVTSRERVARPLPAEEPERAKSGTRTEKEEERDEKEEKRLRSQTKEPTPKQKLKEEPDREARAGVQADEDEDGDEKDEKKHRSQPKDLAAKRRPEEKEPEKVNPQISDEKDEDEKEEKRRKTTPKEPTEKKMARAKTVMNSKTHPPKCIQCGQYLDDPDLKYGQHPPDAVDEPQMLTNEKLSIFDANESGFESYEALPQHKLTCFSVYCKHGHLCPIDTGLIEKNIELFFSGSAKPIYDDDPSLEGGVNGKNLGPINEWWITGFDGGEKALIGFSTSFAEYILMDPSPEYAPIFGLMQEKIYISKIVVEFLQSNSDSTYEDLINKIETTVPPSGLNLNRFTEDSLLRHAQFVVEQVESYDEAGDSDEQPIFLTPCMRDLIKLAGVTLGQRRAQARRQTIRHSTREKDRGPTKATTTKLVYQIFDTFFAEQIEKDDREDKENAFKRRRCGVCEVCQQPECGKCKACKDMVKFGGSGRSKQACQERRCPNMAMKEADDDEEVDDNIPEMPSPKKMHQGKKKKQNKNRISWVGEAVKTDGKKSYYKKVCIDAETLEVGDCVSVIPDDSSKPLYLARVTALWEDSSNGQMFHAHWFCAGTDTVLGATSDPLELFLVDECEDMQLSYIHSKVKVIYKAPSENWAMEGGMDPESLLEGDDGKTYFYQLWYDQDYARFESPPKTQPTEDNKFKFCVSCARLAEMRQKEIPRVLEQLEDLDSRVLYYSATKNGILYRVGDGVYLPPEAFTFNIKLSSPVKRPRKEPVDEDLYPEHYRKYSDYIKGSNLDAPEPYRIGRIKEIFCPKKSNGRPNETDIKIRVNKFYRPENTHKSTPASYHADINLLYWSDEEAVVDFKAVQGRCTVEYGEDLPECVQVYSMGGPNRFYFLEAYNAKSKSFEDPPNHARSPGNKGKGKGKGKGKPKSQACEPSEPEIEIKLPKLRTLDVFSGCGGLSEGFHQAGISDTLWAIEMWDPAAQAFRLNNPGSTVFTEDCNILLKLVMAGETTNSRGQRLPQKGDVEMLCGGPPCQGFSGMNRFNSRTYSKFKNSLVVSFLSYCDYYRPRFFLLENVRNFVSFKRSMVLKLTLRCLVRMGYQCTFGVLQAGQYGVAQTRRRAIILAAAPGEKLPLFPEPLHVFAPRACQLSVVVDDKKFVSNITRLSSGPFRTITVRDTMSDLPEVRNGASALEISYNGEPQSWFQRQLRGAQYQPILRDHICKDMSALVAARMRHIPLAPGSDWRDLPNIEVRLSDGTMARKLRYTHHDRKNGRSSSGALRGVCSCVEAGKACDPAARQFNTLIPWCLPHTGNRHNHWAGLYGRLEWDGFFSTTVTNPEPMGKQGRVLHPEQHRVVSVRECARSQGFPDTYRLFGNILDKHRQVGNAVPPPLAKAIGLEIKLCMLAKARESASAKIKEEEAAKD

Structure (SMILES)	IC50 [1] [µM]	inhibition [2]	EC50 ([3]; Human immunodeficiency virus 1, NL4-3, R5-MaRBLE, 168 h, read-out: EC50) [µM]	IC50 [5] [µM]	Ki [6] [µM]	EC50 ([3]; r5-marble)	CC50 at 168 h [4] [µM]
N[C@@H](Cc1ccc(O)c(-c2c(O)c(O)c3c(c2O)C(=O)c2c(cc(O)c(C(=O)O)c2C(=O)O)C3=O)c1)C(=O)O		Active	19.2	8.1			43.9
NCCc1ccc(O)c(-c2c(O)c(O)c3c(c2O)C(=O)c2c(cc(O)c(C(=O)O)c2C(=O)O)C3=O)c1		Active		44			
CC(=O)NCCc1ccc(O)c(-c2c(O)c(O)c3c(c2O)C(=O)c2c(cc(O)c(C(=O)O)c2C(=O)O)C3=O)c1 [LACCACID ACID A]		Active		64	0.3	Not Active	39.5

The next lines start with results.

IC50 [1] [µM]	inhibition [2]	EC50 ([3]; Human immunodeficiency virus 1, NL4-3, R5-MaRBLE, 168 h, read-out: EC50) [µM]	IC50 [5] [µM]	Ki [6] [µM]	EC50 ([3]; r5-marble)	Structure (SMILES)	CC50 at 168 h [4] [µM]
2						O=C(O)c1cc(O)c2c(c1)[C@@H]([C@H]1c3cc(C(=O)O)cc(O)c3C(=O)c3c(O[C@H]4O[C@@H](CO)[C@H](O)[C@@H](O)[C@@H]4O)cccc31)c1cccc(O[C@@H]3O[C@H](CO)[C@@H](O)[C@H](O)[C@H]3O)c1C2=O	
2						O=C(O)c1cc(O)c2c(c1)[C@@H]([C@@H]1c3cc(C(=O)O)cc(O)c3C(=O)c3c(O[C@@H]4O[C@H](CO)[C@@H](O)[C@H](O)[C@H]4O)cccc31)c1cccc(O[C@H]3O[C@@H](CO)[C@H](O)[C@@H](O)[C@@H]3O)c1C2=O	
